From PubChem BioAssay AID248 (DTP/NCI, 2004)
“And” between values parts separate entries of the source, which are not always exact repeats. Equal entries are not always repeated. Inconclusive results and toxic doses are left out.

Test system: L1210 leukemia ip in BDF1 mice, survival T/C
Assay: NCI In Vivo Anticancer Drug Screen. Data for tumor model L1210 Leukemia (intraperitoneal) in B6D2F1 (BDF1) mice
Conditions: endpoint: mean survival time, higher = longer survival
Summary of the method: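 Value reflects the ratio of survival in compound-treated mice to survival in vehicle-treated controls, with both groups carrying the same transplanted tumor.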

[1] = dose: 100.0 mg/kg/injection, schedule: Q01DX001 (ip), vehicle: Klucel (hydroxypropylcellulose) (HPC)
[2] = dose: 200.0 mg/kg/injection, schedule: Q01DX001 (ip), vehicle: Klucel (hydroxypropylcellulose) (HPC)
[3] = dose: 100.0 mg/kg/injection, schedule: Q04DX002 (ip), vehicle: saline with Tween-80
[4] = dose: 200.0 mg/kg/injection, schedule: Q04DX002 (ip), vehicle: saline with Tween-80
[5] = dose: 400.0 mg/kg/injection, schedule: Q04DX002 (ip), vehicle: saline with Tween-80

## COc1cc2ccc(CN3CCCC3C(=O)OCc3ccccc3)cc2cc1OC (stereo unspecified)
dose: 100.0 mg/kg/injection, schedule: Q01DX009 (ip), vehicle: saline sonified
  T/C: 100 % of control
dose: 100.0 mg/kg/injection, schedule: Q04DX003 (ip), vehicle: saline sonified
  T/C: 95 % of control
dose: 200.0 mg/kg/injection, schedule: Q01DX009 (ip), vehicle: saline sonified
  T/C: 96 % of control
dose: 200.0 mg/kg/injection, schedule: Q04DX003 (ip), vehicle: saline sonified
  T/C: 96 % of control
dose: 400.0 mg/kg/injection, schedule: Q01DX009 (ip), vehicle: saline sonified
  T/C: 91 % of control
dose: 400.0 mg/kg/injection, schedule: Q04DX003 (ip), vehicle: saline sonified
  T/C: 96 % of control

## CC(Cc1ccccc1)N(C)N (stereo unspecified)
dose: 1.56 mg/kg/injection, schedule: Q01DX009 (ip), vehicle: saline
  T/C: 94 % of control
dose: 3.12 mg/kg/injection, schedule: Q01DX009 (ip), vehicle: saline
  T/C: 102 % of control
dose: 6.25 mg/kg/injection, schedule: Q01DX009 (ip), vehicle: saline
  T/C: 91 % of control
dose: 12.5 mg/kg/injection, schedule: Q01DX009 (ip), vehicle: saline
  T/C: 88 % of control
dose: 25.0 mg/kg/injection, schedule: Q01DX009 (ip), vehicle: saline
  T/C: 102 % of control

## CCc1c(Cl)c(C)cc(O)c1Cl
dose: 25.0 mg/kg/injection, schedule: Q01DX009 (ip), vehicle: gum acacia
  T/C: 98 % of control
dose: 25.0 mg/kg/injection, schedule: Q04DX003 (ip), vehicle: gum acacia
  T/C: 100 % of control
dose: 50.0 mg/kg/injection, schedule: Q01DX009 (ip), vehicle: gum acacia
  T/C: 98 % of control
dose: 50.0 mg/kg/injection, schedule: Q04DX003 (ip), vehicle: gum acacia
  T/C: 90 % of control
dose: 100.0 mg/kg/injection, schedule: Q04DX003 (ip), vehicle: gum acacia
  T/C: 96 % of control

## CC(=O)Nc1ccc(C)cc1
[1]
  T/C: 94 % of control
[2]
  T/C: 102 % of control
dose: 400.0 mg/kg/injection, schedule: Q01DX001 (ip), vehicle: Klucel (hydroxypropylcellulose) (HPC)
  T/C: 91 % of control

## CN(C)c1ccc(-c2nc3ccccc3s2)cc1
dose: 50.0 mg/kg/injection, schedule: Q04DX003 (ip), vehicle: Klucel (hydroxypropylcellulose) (HPC)
  T/C: 105 % of control
dose: 100.0 mg/kg/injection, schedule: Q04DX003 (ip), vehicle: Klucel (hydroxypropylcellulose) (HPC)
  T/C: 100 % of control
dose: 200.0 mg/kg/injection, schedule: Q04DX003 (ip), vehicle: Klucel (hydroxypropylcellulose) (HPC)
  T/C: 96 % of control

## CC1CCCCN1Cc1ccccc1COC(=O)c1cccc(Br)c1 (stereo unspecified)
[1]
  T/C: 104 % of control
[2]
  T/C: 96 % of control

## CCC(=O)C(C)C(=O)Nc1ccccc1 (stereo unspecified)
dose: 100.0 mg/kg/injection, schedule: Q01DX001 (ip), vehicle: carboxymethylcellulose (CMC)
  T/C: 102 % of control
dose: 200.0 mg/kg/injection, schedule: Q01DX001 (ip), vehicle: carboxymethylcellulose (CMC)
  T/C: 94 % of control
dose: 400.0 mg/kg/injection, schedule: Q01DX001 (ip), vehicle: carboxymethylcellulose (CMC)
  T/C: 100 % of control

## c1cnc(OCCN2CC2)nc1
dose: 25.0 mg/kg/injection, schedule: Q01DX001 (ip), vehicle: carboxymethylcellulose (CMC)
  T/C: 93 % of control
dose: 50.0 mg/kg/injection, schedule: Q01DX001 (ip), vehicle: carboxymethylcellulose (CMC)
  T/C: 95 % of control

## CCC(c1ccc2cc(OC)ccc2c1)C(C(=O)O)C(=O)O (stereo unspecified)
dose: 50.0 mg/kg/injection, schedule: Q01DX009 (ip), vehicle: Klucel (hydroxypropylcellulose) (HPC)
  T/C: 96 % of control
dose: 100.0 mg/kg/injection, schedule: Q01DX009 (ip), vehicle: Klucel (hydroxypropylcellulose) (HPC)
  T/C: 107 % of control
dose: 200.0 mg/kg/injection, schedule: Q01DX009 (ip), vehicle: Klucel (hydroxypropylcellulose) (HPC)
  T/C: 96 % of control

## CC1(C)OC2OCC(O)C2O1 (stereo unspecified)
dose: 50.0 mg/kg/injection, schedule: Q04DX002 (ip), vehicle: saline
  T/C: 100 % of control
dose: 100.0 mg/kg/injection, schedule: Q04DX002 (ip), vehicle: saline
  T/C: 104 % of control
dose: 200.0 mg/kg/injection, schedule: Q04DX002 (ip), vehicle: saline
  T/C: 110 % of control

## Cc1c2oc3c(C)ccc(C(=O)NC4C(=O)NC(C(C)C)C(=O)N5CCCC5C(=O)N(C)CC(=O)N(C)C(C(C)C)C(=O)OC4C)c3nc-2c(C(=O)NC2C(=O)NC(C(C)C)C(=O)N3CCCC3C(=O)N(C)CC(=O)N(C)C(C(C)C)C(=O)OC2C)c(NCCCO)c1=O (stereo unspecified)
dose: 0.07 mg/kg/injection, schedule: Q04DX003 (ip), vehicle: saline + alcohol
  T/C: 95 % of control
dose: 0.1 mg/kg/injection, schedule: Q01DX009 (ip), vehicle: saline + alcohol
  T/C: 116 % of control
dose: 0.15 mg/kg/injection, schedule: Q04DX003 (ip), vehicle: saline + alcohol
  T/C: 107 % of control
dose: 0.2 mg/kg/injection, schedule: Q01DX001 (ip), vehicle: saline + alcohol
  T/C: 106 % of control
dose: 0.3 mg/kg/injection, schedule: Q04DX003 (ip), vehicle: saline + alcohol
  T/C: 108 % of control
dose: 0.4 mg/kg/injection, schedule: Q01DX001 (ip), vehicle: saline + alcohol
  T/C: 107 % of control
dose: 0.6 mg/kg/injection, schedule: Q04DX003 (ip), vehicle: saline + alcohol
  T/C: 114 % of control
dose: 0.62 mg/kg/injection, schedule: Q04DX003 (ip), vehicle: saline + alcohol
  T/C: 111 % of control
dose: 0.8 mg/kg/injection, schedule: Q01DX001 (ip), vehicle: saline + alcohol
  T/C: 103 % of control
dose: 1.0 mg/kg/injection, schedule: Q01DX001 (ip), vehicle: saline + alcohol
  T/C: 112 % of control
dose: 1.25 mg/kg/injection, schedule: Q04DX003 (ip), vehicle: saline + alcohol
  T/C: 121 % of control
dose: 1.6 mg/kg/injection, schedule: Q01DX001 (ip), vehicle: saline + alcohol
  T/C: 95 % of control
dose: 2.0 mg/kg/injection, schedule: Q01DX001 (ip), vehicle: saline + alcohol
  T/C: 121 % of control
dose: 3.2 mg/kg/injection, schedule: Q01DX001 (ip), vehicle: saline + alcohol
  T/C: 104 % of control
dose: 4.0 mg/kg/injection, schedule: Q01DX001 (ip), vehicle: saline + alcohol
  T/C: 121 % of control
dose: 5.0 mg/kg/injection, schedule: Q04DX003 (ip), vehicle: saline + alcohol
  T/C: 160 % of control
dose: 12.5 micrograms/kg/injection, schedule: Q01DX009 (ip), vehicle: saline + alcohol
  T/C: 101 % of control and 116 % of control
dose: 25.0 micrograms/kg/injection, schedule: Q01DX009 (ip), vehicle: saline + alcohol
  T/C: 98 % of control
dose: 50.0 micrograms/kg/injection, schedule: Q01DX009 (ip), vehicle: saline + alcohol
  T/C: 106 % of control

## CC(=O)[O][Pb]([CH2]CC(C)C)([CH2]CC(C)C)[CH2]CC(C)C
dose: 0.78 mg/kg/injection, schedule: Q01DX009 (ip), vehicle: saline with Tween-80
  T/C: 98 % of control
dose: 0.78 mg/kg/injection, schedule: Q04DX002 (ip), vehicle: saline with Tween-80
  T/C: 95 % of control
dose: 1.56 mg/kg/injection, schedule: Q01DX009 (ip), vehicle: saline with Tween-80
  T/C: 97 % of control
dose: 1.56 mg/kg/injection, schedule: Q04DX002 (ip), vehicle: saline with Tween-80
  T/C: 92 % of control
dose: 3.12 mg/kg/injection, schedule: Q01DX009 (ip), vehicle: saline with Tween-80
  T/C: 95 % of control
dose: 3.12 mg/kg/injection, schedule: Q04DX002 (ip), vehicle: saline with Tween-80
  T/C: 92 % of control

## O=C(NC(=S)Nc1cc(C(F)(F)F)ccc1Cl)c1ccccc1F
dose: 12.5 mg/kg/injection, schedule: Q01DX009 (ip), vehicle: saline with Tween-80
  T/C: 93 % of control and 97 % of control
dose: 100.0 mg/kg/injection, schedule: Q01DX001 (ip), vehicle: saline with Tween-80
  T/C: 104 % of control
[3]
  T/C: 97 % of control and 100 % of control
dose: 200.0 mg/kg/injection, schedule: Q01DX001 (ip), vehicle: saline with Tween-80
  T/C: 102 % of control
dose: 200.0 mg/kg/injection, schedule: Q01DX009 (ip), vehicle: saline with Tween-80
  T/C: 86 % of control
[4]
  T/C: 93 % of control and 97 % of control
dose: 400.0 mg/kg/injection, schedule: Q01DX001 (ip), vehicle: saline with Tween-80
  T/C: 102 % of control
dose: 400.0 mg/kg/injection, schedule: Q01DX009 (ip), vehicle: saline with Tween-80
  T/C: 95 % of control
[5]
  T/C: 100 % of control and 91 % of control
dose: 400.0 mg/kg/injection, schedule: Q04DX003 (ip), vehicle: saline with Tween-80
  T/C: 87 % of control

## N#Cc1c(/N=C/c2cc(Cl)cc(Cl)c2O)sc2c1CCC2
[3]
  T/C: 95 % of control
[4]
  T/C: 113 % of control
[5]
  T/C: 91 % of control

## C=C1C(C)=NN=C2C=CN(C(=O)CI)N12
dose: 100.0 mg/kg/injection, schedule: Q01DX001 (ip), vehicle: saline
  T/C: 109 % of control
dose: 200.0 mg/kg/injection, schedule: Q01DX001 (ip), vehicle: saline
  T/C: 106 % of control
dose: 400.0 mg/kg/injection, schedule: Q01DX001 (ip), vehicle: saline
  T/C: 106 % of control
